Key:
wt-PAH = target: T1, wt-PAH (Homo sapiens, UniProt P00439); assay: ANS-monitored thermal unfolding of wt-PAH; format: binding; settings: for stabilizing effect on wt-PAH: 25 μM compound (FIG. 2); for ΔT0.5 PAHwt / T0.5 PAHwt (half denaturation temperature): 100 μM compound; for ΔT0.5 PAHwt: vs no ligand; for T0.5 PAHwt (half denaturation temperature): mean ± SD
T1 construct: made in house; host or cells: E. coli
T1 sequence (P00439 1-452): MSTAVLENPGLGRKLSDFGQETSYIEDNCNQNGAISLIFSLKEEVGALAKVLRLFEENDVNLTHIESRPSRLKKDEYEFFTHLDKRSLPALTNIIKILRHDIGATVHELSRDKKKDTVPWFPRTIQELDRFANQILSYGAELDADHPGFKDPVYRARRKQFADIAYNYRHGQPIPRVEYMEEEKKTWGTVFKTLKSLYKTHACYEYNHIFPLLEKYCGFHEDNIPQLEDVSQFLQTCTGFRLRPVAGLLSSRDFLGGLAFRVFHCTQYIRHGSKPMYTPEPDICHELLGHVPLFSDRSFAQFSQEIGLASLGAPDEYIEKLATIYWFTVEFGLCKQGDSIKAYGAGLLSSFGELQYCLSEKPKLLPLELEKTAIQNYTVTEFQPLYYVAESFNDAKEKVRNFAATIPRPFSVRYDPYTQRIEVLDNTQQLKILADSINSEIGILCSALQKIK
Protocol: (§1) HTS for ligand-induced PAH stabilization was performed by monitoring the thermal denaturation of recombinant pure PAH protein in the presence of the extrinsic fluorescent probe 8-anilino 1-naphtalene sulfonic acid (ANS; Aldrich). HTS experiments were performed in a FluoDia T70 High Temperature Fluorescence Microplate Reader (Photon Technology International). Protein-ligand solutions (200 uL) were dispensed into 96-well microplates (ThermoFast®96 Skirted from Abgene) and overlayed with mineral oil. Protein solutions contained 0.1 mg/ml PAH (2 μM in PAH subunit) in 20 mM Hepes 200 mM NaCl pH 7.0 and 100 μM ANS. Ligands were added in DMSO, at 100 μM and 2.5% final concentration, respectively. Control experiments in the absence of DMSO and/or ligands were routinely performed in each microplate. Ligands (from MayBridge HitFinder™ Collection Database) were manually added to the microplates containing the protein solutions and incubated at 25° C. for 30 min before loading them onto the microplate reader. Thermal denaturation was monitored by following the increase in ANS fluorescence intensity due to protein unfolding λexc=395 and λern=500 nm; filters (Matulis D, et. Al., Biochemistry 2005, 44(13):5258-66). Fluorescence was registered in the 25-75° C. range, at a 1° C./min scan rate and allowing the system to equilibrate at each temperature for 1 min before fluorescence acquisition The experiments were real-time monitored using the software provided by the manufacturer. After smoothing and normalization of the experimental data, ligand induced stabilization was screened by estimation of the T0.5 as midpoint temperature of the transition defined as the temperature where half of the unfolded fluorescence signal (fu) is experimentally observed, using a home-built software written in C++ and the following expression (equation 1): […]
(§2) Additional thermal denaturation experiments were performed on a Cary Eclipse fluorescence spectrophotometer equipped with a temperature controlled Peltier multicell holder (Varian). Samples containing PAH (2 μM subunit) in 20 mM NaHepes, 200 mM NaCl, pH 7.0, 100 μM ANS, 2.5% DMSO and 0-100 μM ligands were incubated at room temperature for 30 min to allow equilibration prior to measurements. Thermal denaturation was monitored by following changes in ANS fluorescence emission (excitation at 395 and emission at 500 nm; slits 10 nm) at a 1 K/min in a 20-80° C. range. Each run contained 4 different samples, including a control in the absence of ligand. Data analysis was performed by fitting of the experimental fluorescence to equation 1.

[1] = target: T2, PAH103-428 (catalytic domain) (Homo sapiens, UniProt P00439); assay: ANS-monitored thermal unfolding of PAH103-428; format: binding; settings: for ΔT0.5 PAH103-428 / T0.5 PAH103-428: 100 μM compound; for ΔT0.5 PAH103-428: vs no ligand; for T0.5 PAH103-428: mean ± SD; for stabilization of PAH103-428: 100 μM ligand
T2 construct: made in house; host or cells: E. coli
T2 sequence (P00439 103-428): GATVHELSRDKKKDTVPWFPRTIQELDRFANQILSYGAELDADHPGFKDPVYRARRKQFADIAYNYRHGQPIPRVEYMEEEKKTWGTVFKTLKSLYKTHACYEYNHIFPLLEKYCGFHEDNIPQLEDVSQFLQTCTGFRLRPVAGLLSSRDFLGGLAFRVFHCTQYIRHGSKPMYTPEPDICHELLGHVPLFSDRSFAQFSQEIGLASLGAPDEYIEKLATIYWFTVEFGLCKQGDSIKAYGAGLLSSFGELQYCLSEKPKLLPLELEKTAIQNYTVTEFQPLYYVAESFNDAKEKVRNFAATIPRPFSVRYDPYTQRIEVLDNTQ
Protocol: as §1, §2
Similar ligand-induced stabilization experiments were performed using i) a double truncated form of PAH equivalent to the catalytic domain (PAH103-428) lacking both the regulatory N-terminal domain and the tetramerization motif and existing as a functional dimmer and ii) the R68S-PAH mutant, associated to mild PKU and one of the few PKU mutants that display enough stability to be purified as a stable tetramer.

stabilizing effect on wt-PAH (wt-PAH)	ΔT0.5 PAHwt (wt-PAH) [°C]	T0.5 PAHwt (half denaturation temperature) (wt-PAH) [°C]	ΔT0.5 PAH103-428 [1] [°C]	T0.5 PAH103-428 [1] [°C]	stabilization of PAH103-428 [1]	Structure (SMILES)
significant	13.6	63.1 ± 2.9	10.1	55.0 ± 1.3	significantly stabilized	Nc1c(-c2ccc3ccccc3n2)c2ccc([N+](=O)[O-])cc2c(=O)n1Cc1ccccc1 [Compound 11, 3-amino-2-benzyl-7-nitro-4-(2-quinolyl)-1,2-dihydroisoquinolin-1-one]
	2.6	52.1 ± 0.9	4.3	49.2 ± 1.2		Cc1onc(-c2ccccc2)c1-c1n[nH]c(N)c1C#N [Compound 5, 5-amino-3-(5-methyl-3-phenyl-4-isoxazolyl)-1H-pyrazole-4-carbonitrile]
	2.7	52.2 ± 1.3	8.4	53.3 ± 1.5	significantly stabilized	Cn1cnc([N+](=O)[O-])c1N1CCN(C(c2ccccc2)c2ccccc2)CC1 [Compound 6, 1-benzhydryl-4-(1-methyl-4-nitro-1H-imidazol-5-yl)piperazine]
significant	7.2	56.7 ± 1.5	1.2	46.1 ± 0.7	only a slight stabilized	Cc1ccnc(-n2c(=S)[nH]c3sc(C)c(C)c3c2=O)c1 [Compound 13, 5,6-dimethyl-3-(4-methyl-2-pyridinyl)-2-thioxo-2,3 dihydrothieno[2,3-d]pyrimidin-4(1H)-one]

Source: US8338423B2, “Compositions for the treatment of hyperphenylalaninemia” (Universidad de Zaragoza, priority 2007, dated 2012)
